Measured values from patent US12139487B2, “Compounds and uses thereof” (Foghorn Therapeutics Inc., priority 2022, dated 2024).

Tested on: BRM-dependent transcription (BRG1 mutant lung cancer cell line A549)
Assay: BRM-dependent transcription, MMTV luciferase reporter in BRG1 mutant A549 cells
Type: cell-based
Conditions: Table 11; for IC50: A549-MMTV luciferase reporter, dexamethasone induced, 6 hours; for Ratio (MDA-MMTV IC50 (μM) divided by A549-MMTV IC50 (μM)): MMTV luciferase reporter cell lines, selectivity BRG1/BRM
Method: The potential inhibitory effects of compounds on BRG1 and BRM dependent transcription was study by testing the activity of against the BRG1 mutant lung cancer cell line A549 and a MDA cell line with BRM removed by CRISPR. Both cell lines were genetically engineered with a BRG1 or BRM-dependent mouse mammary tumor virus luciferase reporter. Luciferase transcription was induced by dexamethasone in the presence of compound at different concentrations and luminescence was measured using a plate reader 6 hours after stimulation.

Compound	IC50 (Homo sapiens, A549, 6 h) [nM]	Ratio (MDA-MMTV IC50 (μM) divided by A549-MMTV IC50 (μM))	IC50 [nM]
CCOc1nc(C(F)F)ccc1-c1ccc2cnc(CNC(=O)c3cc(Cl)c4c(c3)S(=O)(=O)[C@@H](F)CCO4)cc2n1 [Compound 331, (R)-9-chloro-N-((2-(6-(difluoromethyl)-2-ethoxypyridin-3-yl)-1,6-naphthyridin-7-yl)methyl)-4-fluoro-3,4-dihydro-2H-benzo[b][1,4]oxathiepine-7-carboxamide 5,5-dioxide]	16.9	33.18	
O=C(NCc1cc2nc(-n3cc(F)c(OC(F)F)n3)ccc2cn1)c1cc(F)c2c(c1)S(=O)(=O)[C@@H](F)COC2 [Compound 473]	17.1	22.61	
C=C(F)c1cc(C(=O)NCc2cc3nc(-c4cccc(N5C[C@@H](C)O[C@@H](C)C5)n4)ccc3cn2)cc2c1OCC[C@H](F)S2(=O)=O [Compound 443]	15.2	27.83	
[2H]C([2H])([2H])C([2H])([2H])Oc1nc([C@H](C)F)ccc1-c1ccc2cnc(CNC(=O)c3cc(F)c4c(c3)S(=O)(=O)[C@@H](F)CCO4)cc2n1 [Compound 421]	8	23.62	
CC(C)c1ccc(-c2ccc3cnc(CNC(=O)c4cc(Br)c5c(c4)S(=O)(=O)[C@@H](F)CCO5)cc3n2)c(OC(F)F)n1 [Compound 402]	21.7	26.98	
O=C(NCc1cc2nc(-c3ccc(OC(F)F)c(C4CC4)n3)ccc2cn1)c1cc(Br)c2c(c1)S(=O)(=O)[C@@H](F)COC2 [Compound 408]	16.5	32.34	
C#Cc1cc(C(=O)NCc2cc3nc(-c4cccc(N5C[C@@H](C)O[C@@H](C)C5)n4)ccc3cn2)cc2c1COC[C@H](F)S2(=O)=O [Compound 393]	20.3	36.31	
O=C(NCc1cc2nc(-c3ccc(C(F)F)nc3OCC3CC3)ccc2cn1)c1cc(F)c2c(c1)S(=O)(=O)[C@@H](F)COC2 [Compound 488]	7.9	26.53	
COc1ccccc1-c1ccc2cnc(CNC(=O)c3cc(F)c4c(c3)S(=O)(=O)[C@@H](F)CCO4)cc2n1 [Compound 338]	14.1	21.68	
CCOc1nc(C(C)(F)F)ccc1-c1ccc2cnc(CNC(=O)c3cc(F)c4c(c3)S(=O)(=O)[C@@H](F)COC4)cc2n1 [Compound 509]		25.33	20.2
CCOc1nc([C@H](F)CF)ccc1-c1ccc2cnc(CNC(=O)c3cc(C(F)F)c4c(c3)S(=O)(=O)[C@@H](F)COC4)cc2n1 [Compound 518]		35.47	21
O=C(NCc1cc2nc(-c3cnc(OC(F)F)c(C4CC4)n3)ccc2cn1)c1cc(C(F)F)c2c(c1)S(=O)(=O)[C@@H](F)COC2 [Compound 465]	22.6	55.20	
COCCOc1cnc2c(c1)OCCN2c1ccc2cnc(CNC(=O)c3cc(C(F)F)c4c(c3)S(=O)(=O)[C@@H](F)COC4)cc2n1 [Compound 437]	5.8	35.93	
Cc1cc(C(=O)NCc2cc3nc(N4CCOc5ccc(C(F)F)nc54)ccc3cn2)cc2c1OCC[C@H](F)S2(=O)=O [Compound 340]	15.8	26.04	
C[C@@H]1CCN1c1cnc2c(-c3ccc4cnc(CNC(=O)c5cc(Cl)c6c(c5)S(=O)(=O)[C@@H](F)COC6)cc4n3)cccc2c1 [Compound 498]		38.20	5.9
C[C@@H]1CN(c2cccc(-c3ccc4cnc(CNC(=O)c5cc(F)c6c(c5)S(=O)(=O)[C@@H](F)CO6)cc4n3)n2)C[C@H](C)O1 [Compound 341]	122	28.75	
O=C(NCc1cc2nc(-c3ccnc(N4CCCC4)n3)ccc2cn1)c1cc(Cl)c2c(c1)S(=O)(=O)[C@@H](F)CCO2 [Compound 345]	15.6	21.59	
O=C(NCc1cc2nc(-c3ccc([C@H](F)C(F)F)c(C4CC4)n3)ccc2cn1)c1cc(Cl)c2c(c1)S(=O)(=O)[C@@H](F)COC2 [Compound 491]	18.2	23.59	
O=C(NCc1cc2nc(-c3cccc(C4CC4(F)F)n3)ccc2cn1)c1cc(F)c2c(c1)S(=O)(=O)[C@@H](F)CCO2 (some centres unmarked) [Compound 336]	15.3	22.47	
COc1nc([C@@H](F)CF)ccc1-c1ccc2cnc(CNC(=O)c3cc(Br)c4c(c3)S(=O)(=O)[C@@H](F)CCO4)cc2n1 [Compound 383]	21.8	24.64	

Compound	IC50 (Homo sapiens, A549, 6 h) [nM]	Ratio (MDA-MMTV IC50 (μM) divided by A549-MMTV IC50 (μM))	IC50 [nM]
O=C(NCc1cc2nc(-c3ccc(C(F)F)nc3OCC3CC3)ccc2cn1)c1cc(F)c2c(c1)S(=O)(=O)[C@@H](F)CCO2 [Compound 332, (4R)—N-[[2-[2-(cyclopropylmethoxy)-6-(difluoromethyl)-3-pyridyl]-1,6-naphthyridin-7-yl]methyl]-4,9-difluoro-5,5-dioxo-3,4-dihydro-2H-1,5benzoxathiepine-7-carboxamide]	21	28.13	
CCOc1nn(-c2ccc3cnc(CNC(=O)c4cc(Cl)c5c(c4)S(=O)(=O)[C@@H](F)COC5)cc3n2)cc1F [Compound 472]	11	39.75	
[2H]C([2H])([2H])Oc1ccc(-c2ccc3cnc(CNC(=O)c4cc(C(F)F)c5c(c4)S(=O)(=O)[C@@H](F)COC5)cc3n2)nc1C1CC1(F)F (some centres unmarked) [Compound 455]	10.4	45.81	
O=C(NCc1cc2nc(N3CCOc4cc(N5CC(F)(F)C5)cnc43)ccc2cn1)c1cc(F)c2c(c1)S(=O)(=O)[C@@H](F)CCO2 [Compound 353]	15.5	21.63	
COCCOc1cnc2c(c1)OCCN2c1ccc2cnc(CNC(=O)c3cc(Cl)c4c(c3)S(=O)(=O)[C@@H](F)CCO4)cc2n1 [Compound 414]	15.1	22.34	
[2H]C([2H])([2H])C([2H])([2H])Oc1nc(C(F)F)ccc1-c1ccc2cnc(CNC(=O)c3cc(C(F)F)c4c(c3)S(=O)(=O)[C@@H](F)COC4)cc2n1 [Compound 446]	13.5	29.71	
C[C@H](F)c1ccc(-c2ccc3cnc(CNC(=O)c4cc(F)c5c(c4)S(=O)(=O)[C@@H](F)CCO5)cc3n2)c(OC(F)F)n1 [Compound 389]	3.2	26.77	
O=C(NCc1cc2nc(-c3ccc(OC(F)F)c([C@@H]4CC4(F)F)n3)ccc2cn1)c1cc(Cl)c2c(c1)S(=O)(=O)[C@@H](F)COC2 [Compound 449]	7.4	37.87	
[2H]C([2H])([2H])C([2H])([2H])Oc1nc([C@@H](F)CF)ccc1-c1ccc2cnc(CNC(=O)c3cc(Cl)c4c(c3)S(=O)(=O)[C@@H](F)CCO4)cc2n1 [Compound 454]	14.2	29.67	
CCOc1nc(C(F)F)ccc1-c1ccc2cnc(CNC(=O)c3cc(Br)c4c(c3)S(=O)(=O)[C@@H](F)COC4)cc2n1 [Compound 436]	13.1	43.58	
COc1nc([C@@](C)(F)C(F)F)ccc1-c1ccc2cnc(CNC(=O)c3cc(F)c4c(c3)S(=O)(=O)[C@@H](F)CCO4)cc2n1 [Compound 356]	14.6	23.98	
[2H]C([2H])([2H])Oc1ccc(-c2ccc3cnc(CNC(=O)c4cc(Cl)c5c(c4)S(=O)(=O)[C@@H](F)COC5)cc3n2)nc1C1CC1(F)F (some centres unmarked) [Compound 506]	10.2	42.09	
COCCc1ccc2c(n1)N(c1ccc3cnc(CNC(=O)c4cc(F)c5c(c4)S(=O)(=O)[C@@H](F)CCO5)cc3n1)CCO2 [Compound 432]	13	25.93	
[2H]C1([2H])Oc2c(Cl)cc(C(=O)NCc3cc4nc(-c5cccc(OC(F)F)n5)ccc4cn3)cc2S(=O)(=O)[C@@H](F)C1([2H])[2H] [Compound 418]	23.9	52.60	
COCCOc1cnc2c(-c3ccc4cnc(CNC(=O)c5cc(Cl)c6c(c5)S(=O)(=O)[C@@H](F)COC6)cc4n3)cccc2c1 [Compound 513]	13.7	27.47	
O=C(NCc1cc2nc(-c3ccc(OC(F)F)c(C4CC4)n3)ccc2cn1)c1cc(Br)c2c(c1)S(=O)(=O)[C@@H](F)CCO2 [Compound 400]	25.1	47.75	
O=C(NCc1cc2nc(-c3ccc(OC(F)F)c([C@@H]4CC4(F)F)n3)ccc2cn1)c1cc(C(F)F)c2c(c1)S(=O)(=O)[C@@H](F)COC2 [Compound 451]	5.6	25.86	
CCOc1nc([C@@H](F)CF)ccc1-c1ccc2cnc(CNC(=O)c3cc(C(F)F)c4c(c3)S(=O)(=O)[C@@H](F)COC4)cc2n1 [Compound 515]		23.82	16.7
O=C(NCc1cc2nc(-c3cnc(OC(F)F)c(C4CC4)n3)ccc2cn1)c1cc(F)c2c(c1)S(=O)(=O)[C@@H](F)CCO2 [Compound 373]	14.9	23.16	
COc1nc(-c2ccc3cnc(CNC(=O)c4cc(Cl)c5c(c4)S(=O)(=O)[C@@H](F)CCO5)cc3n2)ccc1C(F)F [Compound 360]	19.9	23.20	
